From US20160280743A1, “BACTERIAL MUTANTS AND METHODS OF USE” (priority 2015, published 2016)
Values after ≈ are worked out from the molar mass of the structure shown. Read-outs that look alike come from different tables or passages of the source.

Assays:
[1] = system: P. aeruginosa PAO1, PAO1-Pore, Δ3, Δ3-Pore; assay: Fold MIC change between P. aeruginosa strains (OM barrier, efflux); type: cell-based, Pseudomonas aeruginosa; conditions: for Fold MIC change, Efflux, PAO1-Pore/Δ3-Pore / Fold MIC change, Efflux, PAO1/Δ3 / Fold MIC change, OM barrier, PAO1/PAO1-Pore / Fold MIC change, OM barrier, Δ3/Δ3-Pore: P. aeruginosa
[2] = system: P. aeruginosa PAO1, PAO1-Pore, Δ3, Δ3-Pore cells; assay: Azithromycin uptake into P. aeruginosa cells by LC-MS; conditions: 5 μM; 0.1 mM IPTG; LC-MS (FIG. 5C)
Method: For LC-MS analyses, P. aeruginosa cells were grown to stationary phase in 50 mM MOPS (pH 7.2) M9 minimal medium supplemented with 1% glycerol and trace ions at 37° C. Stationary phase cells were subcultured 1:100 for 16 hours in the same fresh medium at 37° C. After 16 hours, cultures were induced with 0.1 mM IPTG for 4 hours at 37° C. Cells were collected by centrifugation at room temperature and resuspended in PMG buffer at one-tenth the original culture volume. […] At appropriate time points, 100 μl of cells were removed and collected onto filter plates using a HTS Vacuum Manifold (EMD Millipore). Filters were dried overnight and extracted in a two-step process using 1) 800 μl of 100% HPLC grade methanol and 2) 200 μl of 80% HPLC methanol: 20% ultrapure water. […] For HPLC, two mobile phases (A—100% water, B—100% acetonitrile; both with 0.1% formic acid) were used with a step gradient of 20, 50 and 100% of B for 1, 4, and 11 min, respectively.

[3] = system: P. aeruginosa Δ3-Pore (GKCW116, FhuAΔC/Δ4L pore); assay: MIC, two-fold broth dilution, P. aeruginosa Δ3-Pore; conditions: for MIC Δ3 Pore: P. aeruginosa Δ3-Pore, 0.1 mM IPTG, LB, 37° C., 16 h
Method: (§3) Susceptibilities of E. coli and P. aeruginosa cells to different classes of antibiotics were determined by two-fold broth dilution method [1] with following modifications. Cells were grown in Luria-Bertani (LB) broth (tryptone 10 g/L, yeast extract 5 g/L and NaCl 5 g/L) with appropriate selection markers as needed, at 37° C. with shaking at 200 rpm. When needed, at OD600˜0.3, either L-arabinose (final concentration 0.1%) or IPTG (final concentration 0.1 mM) were added to induce the expression of the pore and cells were further incubated until OD600 reached 1.0. MICs of various antimicrobial agents were measured in 96-well micro-titer plates. For this purpose, exponentially growing cells were inoculated at a density of 10^5 cells/ml into wells containing LB medium in the presence of two-fold increasing concentrations of drugs under investigation at constant inducer concentration of 0.1% arabinose for E. coli or 0.1 mM IPTG for P. aeruginosa strains. Cell growth was determined visually or using Spark 10M microplate reader (Tecan) after incubation of the micro-titer plates at 37° C. for 16 h.
(§4) For this purpose, induced cells were dispensed into 96-well microplates with LB medium containing two-fold dilutions of an antibiotic of interest and a respective concentration of an inducer.

E. coli GD102 (ΔTolC) = conditions: E. coli ΔTolC without pore; 0.1% arabinose; LB, 37° C., 16 h
Method: as §3, §4

[4] = system: E. coli ΔTolC-Pore (GKCW103, FhuAΔC/Δ4L pore); conditions: 0.1% arabinose, LB, 37° C., 16 h
Method: as §3, §4

[5] = system: E. coli WT-Pore (GKCW101, FhuAΔC/Δ4L pore); assay: microbe, parasite or virus in culture; conditions: Escherichia coli, 16 h, read-out: MIC BW 25113 (WT) Pore
Method: as §3, §4

[6] = system: P. aeruginosa PAO1Δ3 (Δ3); conditions: P. aeruginosa Δ3 without pore; 0.1 mM IPTG; LB, 37° C., 16 h
Method: as §3, §4

E. coli BW 25113 (WT) = assay: microbe, parasite or virus in culture; conditions: Escherichia coli, 16 h, read-out: MIC BW 25113 (WT) —
Method: as §3, §4

[7] = system: E. coli WT, WT-Pore, ΔTolC, ΔTolC-Pore; type: cell-based, Escherichia coli; conditions: E. coli
P. aeruginosa PAO1 [8] = assay: microbe, parasite or virus in culture; conditions: Pseudomonas aeruginosa
Method: as §3, §4

E. coli WT-Pore = assay: Vancomycin disc susceptibility assay, E. coli WT-Pore; type: cell-based; conditions: Escherichia coli, read-out: Zone of clearance, E. coli WT-Pore, 100 μg vancomycin disc
Method: (§1) Vancomycin susceptibility spot assay. Indicated E. coli (A) and P. aeruginosa (B) strains were seeded onto LB agar plates, ˜10^8 cells per plate, with and without inducers 0.1% arabinose and 0.1 mM IPTG, respectively. […] Seeded plates were incubated overnight at 37° C. Large clearance zones can be clearly seen in the presence of inducers.

P. aeruginosa Δ3 = assay: Vancomycin disc susceptibility assay, P. aeruginosa Δ3; type: cell-based; conditions: Pseudomonas aeruginosa, 200 μg vancomycin disc, read-out: Zone of clearance
Method: as §1

P. aeruginosa Δ3-Pore = assay: Vancomycin disc susceptibility assay, P. aeruginosa Δ3-Pore; type: cell-based; conditions: Pseudomonas aeruginosa, 200 μg vancomycin disc, read-out: Zone of clearance
Method: as §1

E. coli ΔTolC-Pore = assay: Vancomycin disc susceptibility assay, E. coli ΔTolC-Pore; type: cell-based; conditions: Escherichia coli, read-out: Zone of clearance, E. coli ΔTolC-Pore, 100 μg vancomycin disc
Method: (§2) Vancomycin susceptibility spot assay. […] […] Seeded plates were incubated overnight at 37° C. Large clearance zones can be clearly seen in the presence of inducers.

P. aeruginosa PAO1-Pore = assay: Vancomycin disc susceptibility assay, P. aeruginosa PAO1-Pore; type: cell-based; conditions: Pseudomonas aeruginosa, 200 μg vancomycin disc, read-out: Zone of clearance
Method: as §1

E. coli ΔTolC = assay: Vancomycin disc susceptibility assay, E. coli ΔTolC; type: cell-based; conditions: Escherichia coli, read-out: Zone of clearance, E. coli ΔTolC, 100 μg vancomycin disc
Method: as §1

P. aeruginosa PAO1 [9] = assay: Vancomycin disc susceptibility assay, P. aeruginosa PAO1; type: cell-based; conditions: Pseudomonas aeruginosa, 200 μg vancomycin disc, read-out: Zone of clearance
Method: as §2

E. coli WT = assay: Vancomycin disc susceptibility assay, E. coli WT; type: cell-based; conditions: Escherichia coli, 100 μg vancomycin disc, read-out: Zone of clearance
Method: as §1

[10] = PAO1, 16 h, read-out: MIC PAO1 —

CC[C@H]1OC(=O)[C@H](C)[C@@H](O[C@H]2C[C@@](C)(OC)[C@@H](O)[C@H](C)O2)[C@H](C)[C@@H](O[C@@H]2O[C@H](C)C[C@H](N(C)C)[C@H]2O)[C@](C)(O)C[C@@H](C)CN(C)[C@H](C)[C@@H](O)[C@]1(C)O [Azithromycin]
Decrease of MIC from PAO1 cells to induced Δ3-Pore cells ([1]; FIG. 5B): more than 2000 fold | Drop in MIC in PAO1-Pore cells with increasing inducer ([1]; IPTG (FIG. 5)): 32 fold | Drop in MIC in Δ3-Pore cells with increasing inducer ([1]; IPTG (FIG. 5)): 64 fold | Fold MIC change, Efflux, PAO1-Pore/Δ3-Pore [1]: 64 fold | Fold MIC change, Efflux, PAO1/Δ3 [1]: 32 fold | Fold MIC change, OM barrier, PAO1/PAO1-Pore [1]: 32 fold | Fold MIC change, OM barrier, Δ3/Δ3-Pore [1]: 64 fold | Accumulation of azithromycin in permeabilized PAO1-Pore and Δ3-Pore cells [2]: significantly higher than PAO1 and Δ3 cells | MIC Δ3 Pore [3]: 0.063 µg/mL (≈ 0.0841 µM) | MIC in P. aeruginosa Δ3-Pore cells ([3]; induced, plateau with increasing IPTG (FIG. 5)): 0.083 µM (≈ 0.0622 µg/mL) | MIC GD102 (ΔTolC) — (E. coli GD102 (ΔTolC)): 0.5 µg/mL (≈ 0.668 µM) | MIC GD102 (ΔTolC) Pore [4]: 0.031 µg/mL (≈ 0.0414 µM) | MIC [5]: 0.5 µg/mL (≈ 0.668 µM) | MIC Δ3 — [6]: 4 µg/mL (≈ 5.34 µM) | MIC (E. coli BW 25113 (WT)): 2 µg/mL (≈ 2.67 µM) | Fold MIC change, Efflux, WT-Pore/ΔTolC-Pore [7]: 16 fold | Fold MIC change, Efflux, WT/ΔTolC [7]: 4 fold | Fold MIC change, OM barrier, WT/WT-Pore [7]: 4 fold | Fold MIC change, OM barrier, ΔTolC/ΔTolC-Pore [7]: 16 fold | MIC (P. aeruginosa PAO1 [8]; [10]): 128 µg/mL | MIC (P. aeruginosa PAO1 [8]; PAO1, read-out: MIC in P. aeruginosa PAO1 cells): 171 µM

CN[C@H](CC(C)C)C(=O)N[C@H]1C(=O)N[C@@H](CC(N)=O)C(=O)N[C@H]2C(=O)N[C@H]3C(=O)N[C@H](C(=O)N[C@H](C(=O)O)c4cc(O)cc(O)c4-c4cc3ccc4O)[C@H](O)c3ccc(c(Cl)c3)Oc3cc2cc(c3O[C@@H]2O[C@H](CO)[C@@H](O)[C@H](O)[C@H]2O[C@H]2C[C@](C)(N)[C@H](O)[C@H](C)O2)Oc2ccc(cc2Cl)[C@H]1O [Vancomycin]
Fold MIC change, Efflux, PAO1-Pore/Δ3-Pore [1]: 2 fold | Fold MIC change, Efflux, PAO1/Δ3 [1]: 2 fold | Fold MIC change, OM barrier, PAO1/PAO1-Pore [1]: 16 fold | Fold MIC change, OM barrier, Δ3/Δ3-Pore [1]: 16 fold | zone of inhibition at 100 µg/disc (E. coli WT-Pore; Arabinose (0.1%)): 16 mm | zone of inhibition at 100 µg/disc (E. coli WT-Pore; IPTG (0.1 mM)): 11 mm | zone of inhibition at 100 µg/disc (E. coli WT-Pore; No inducer): 8 mm | MIC Δ3 Pore [3]: 64 µg/mL (≈ 44.2 µM) | zone of inhibition at 200 µg/disc (P. aeruginosa Δ3; Arabinose (0.1%)): 12 mm | zone of inhibition at 200 µg/disc (P. aeruginosa Δ3; IPTG (0.1 mM)): 9 mm | zone of inhibition at 200 µg/disc (P. aeruginosa Δ3; No inducer): 10 mm | MIC GD102 (ΔTolC) — (E. coli GD102 (ΔTolC)): 256 µg/mL (≈ 177 µM) | zone of inhibition at 200 µg/disc (P. aeruginosa Δ3-Pore; Arabinose (0.1%)): 22 mm | zone of inhibition at 200 µg/disc (P. aeruginosa Δ3-Pore; IPTG (0.1 mM)): 18 mm | zone of inhibition at 200 µg/disc (P. aeruginosa Δ3-Pore; No inducer): 12 mm | MIC GD102 (ΔTolC) Pore [4]: 4 µg/mL (≈ 2.76 µM) | MIC [5]: 8 µg/mL (≈ 5.52 µM) | MIC Δ3 — [6]: 1024 µg/mL (≈ 707 µM) | MIC (E. coli BW 25113 (WT)): 128 µg/mL (≈ 88.3 µM) | zone of inhibition at 100 µg/disc (E. coli ΔTolC-Pore; Arabinose (0.1%)): 15 mm | zone of inhibition at 100 µg/disc (E. coli ΔTolC-Pore; IPTG (0.1 mM)): 16 mm | zone of inhibition at 100 µg/disc (E. coli ΔTolC-Pore; No inducer): 7 mm | zone of inhibition at 200 µg/disc (P. aeruginosa PAO1-Pore; Arabinose (0.1%)): 21 mm | zone of inhibition at 200 µg/disc (P. aeruginosa PAO1-Pore; IPTG (0.1 mM)): 19 mm | zone of inhibition at 100 µg/disc (E. coli ΔTolC; Arabinose (0.1%)): 6 mm | zone of inhibition at 100 µg/disc (E. coli ΔTolC; IPTG (0.1 mM)): 5 mm | zone of inhibition at 100 µg/disc (E. coli ΔTolC; No inducer): 5 mm | zone of inhibition at 200 µg/disc (P. aeruginosa PAO1 [9]; Arabinose (0.1%)): 12 mm | zone of inhibition at 200 µg/disc (P. aeruginosa PAO1 [9]; IPTG (0.1 mM)): 10 mm | zone of inhibition at 200 µg/disc (P. aeruginosa PAO1 [9]; No inducer): 11 mm | Fold MIC change, Efflux, WT-Pore/ΔTolC-Pore [7]: 2 fold | Fold MIC change, Efflux, WT/ΔTolC [7]: 0.5 fold | Fold MIC change, OM barrier, WT/WT-Pore [7]: 16 fold | Fold MIC change, OM barrier, ΔTolC/ΔTolC-Pore [7]: 64 fold | zone of inhibition at 100 µg/disc (E. coli WT; Arabinose (0.1%)): 6 mm | zone of inhibition at 100 µg/disc (E. coli WT; IPTG (0.1 mM)): 6 mm | zone of inhibition at 100 µg/disc (E. coli WT; No inducer): 5 mm | MIC (P. aeruginosa PAO1 [8]; [10]): 2050 µg/mL
